Experimental data reported in article PMC7349657, “Efficient Targeted Degradation via Reversible and Irreversible Covalent PROTACs” (Journal of the American Chemical Society, 2020).

Assays:
[1] = target: BTK (Homo sapiens, UniProt Q06187); test: Time course of BTK degradation in Ramos and Mino cells; format: cell-based; design: endogenous in cells; host or cells: Mino (ATCC CRL-3000), Ramos (ATCC CRL-1596), K562 (NCI-60); conditions: 100 nM PROTAC, Ramos cells (RC-3: Mino cells)
Protocol: We followed the rate of BTK degradation facilitated by this compound series via a time course experiment in Ramos and Mino cells (Supporting Figure 3). The rates of degradation correlated well with the DC50 values observed after 24 h, with NC-1, IR-1, IR-2, and RC-3 degrading BTK within 2–4 h, while RC-2 and RC-1 required 6–24 h to reach maximum degradation.
Ramos (ATCC, CRL-1596), Mino (ATCC, CRL-3000), or K562 (NCI-60) cell lines were counted and diluted to 10^6 cell/mL, using 1 mL per well in a 24-well plate, and U2OS (ATCC HTB-96) cells overexpressing human BTK WT or C481S mutant were grown using 2 mL in a six-well plate (see Supporting Information). Cells were incubated with 1% DMSO or compound in indicated concentrations for 24 h unless indicated differently, or cells were left untreated. Lysates were prepared as previously described,[29] and samples were measured for total protein quantification by bicinchoninic acid (BCA) assay (#23225 ThermoFisher Scientific) supplemented with 4× loading buffer including 20 mM DTT, heated to 70 °C for 10 min, loaded into 4% SDS-PAGE gel, run for 45 min at 140 mV, then transferred into a nitrocellulose membrane (Biorad) using a Trans-Blot Turbo transfer system (Biorad). The membrane was stained with Ponceau (Sigma) to validate transfer for 10 min in gentle agitation then destained for 1 h with MQ water. The membrane was blocked with Licor blocking buffer (LIC927-70001) for 1 h, washed three times for 5 min with TBS-T, incubated with primary antibody BTK (D3H5) rabbit mAb (CST; 8547 S) overnight (16 h) at 4 °C, washed three times for 5 min with TBS-T, and incubated with primary antibody against β-actin (CST; 3700) for 1 h at 25 °C. Membrane was washed three times for 5 min with TBS-T, incubated with fluorescent secondary antibodies anti-mouse IgG Alexa Fluor 647 (CST: 4410S) and anti-rabbit-IgG IRDye 800(LICOR: 926-32211) for 1 h, then washed three times for 5 min with TBS-T, dried, and immediately imaged and analyzed using Licor Odyssey CLx. Prism (GraphPad) software was used to calculate degradation levels. We used second-order polynomial fits to estimate DC50 and Dmax values.
Supplementary Figure 3: BTK degradation time dependency.
Ramos (PI3I, RC-1, I R-1, R C-2, I R-2, NC-1) or Mino ( RC-3) cells were treated with 100 nM of PROTAC or DMSO for indicated times, subsequently harvested for BTK levels measurement via western blot.
(1 picture or pasted object on this page, not shown here)

[2] = system: C481S BTK; test: In vitro kinase activity assay, C481S BTK (Nanosyn); conditions: 2 h preincubation
[3] = system: Ramos cells; test: Metabolomic quantification of PROTAC cellular concentration; format: in vitro ADME, human; conditions: 2 hours; for Effective cellular concentration: 100 nM compound; for effective cellular concentration relative to IR-2 / effective cellular concentration relative to RC-2: 100 nM
Protocol: Raw data were analyzed using the MaxQuant software suite 1.6.0.16
(www.maxquant.org) with the Andromeda search engine2. The higher-energy collisional dissociation (HCD) MS/MS spe ctra were searched against an in silico tryptic digest of Homo sapiens proteins from the UniProt/Swiss-Prot sequence databas e (v. July 2019), including common contaminant proteins. All MS/MS spectra were searched with the following MaxQuant parameters: acetyl (protein N -terminus) and methionine oxidation as variable modifications; cysteine carbamidomethylation was set as fixed modification for all samples, exc ept for the SDT samples in which case carbamidomethylation was set as variable modification; max 2 missed cleavages; and precursors were initially matched to 4. 5 ppm tolerance and 20 ppm for fragment spectra. Peptide spectrum matches and proteins were automatically filtered to a 1% false discovery rate based on Andromeda score, pep tide length, and individual peptide mass errors. Processing was conducted without a match between runs.
Proteins were identified and quantified based on at least two unique peptides and based on the label -free quantification (LFQ) 3 values reported by Ma xQu ant. Every data set contained three sets of four replicates (one set for DMSO treated samples, one set for 50 nM and one set for 100 nM). Proteins were excluded from analysis if within all three sets, there were less than three samples with directly detect ed and quantified protein. After this filtering step, missing values were replaced from a normal distribution.
Sample preparation: 106 Ramos cells were treated in three replicates with 100 nM compound for 2 hours. Cells were then washed twice by centrifuge at 200 rcf, 4°C for 5 minutes, removing the supernatant and washed with ice cold PBS. Samples were then centrifuged at 200 rcf, 4°C for 5 minutes, then supernatant was removed and samples were frozen at -80°C. Samples were dispersed in 100 µl of PBS. From each sample, 20 µ l were mixed with 20 µl of 10% SDS in 50 mM ammonium bicarbonate, heated to 96 ° C for 5 minutes, and the protein concentration was measured by BCA ass ay. Another 75 µ l were mixed with 0.5 mL of 50% acetonitrile:water, sonicated 3 times 10 second s on ice, centrifuged for 10 minutes at 15000 rpm at 4°C, and the supernatant was transferred to a new tube and lyophilized.
The residue was dissolved in 25% acetonitrile in water in a volume calculated from the BCA assay to obtain a con centration equivalent to 1.09 µg / µl protein. The samples were centrifuged at 21,000 g for 5 min utes to remove insoluble material. Standard curves from 0.1-100 ng/mL for each compound were used for quantitation.
The LC–MS/MS instrument consi sted of an Acquit y I-class UPLC system (Waters) and Xevo TQ-XS triple quadrupole mass spectrometer (Waters) equipped with an electrospray ion source. Chromatographic separation was done on UPLC BEH C18 column (50mm × 2.1mm, 1.7-µm, Waters) using 50-100% gradient of 95%-aqueous acetonitrile with 0.1% formic acid in aqueous 0.1% formic acid during 2.5 minut e s, with a flow rate of 0. 3 mL min−1 and column temperature 30°C. Samples kept at 10°C were automatically injected in a volume of 3µl.
MS parameters (positive ion mode): capillary voltage - 2. 0kV, source temperature - […]
Targeting BTK in CLL cells
After signing an informed consent form approved by the Tel Aviv Medical Center IRB according to the Helsinki Accords, blood samples were collected from pat ients fulfilling the standard criteria for CLL. Peripheral blood mononuclear cells (PBMC) were isolated by Ficoll (Uppsala, Sweden) density-gradient centrifugation. Viable frozen cells were kept in FCS (Biological Industries, Beit-Haemek, Israel) containing 10% DMSO (Merck, Darmstadt, Germany) and stored in liquid nitrogen. Before use, frozen cells were thawed and cultured at 37°C, 5% CO 2, in RPMI medium supplemented with 10% FCS, penicillin, streptomycin, and L-glutamine (all from Biological Industries, Be it-Haemek, Israel.) […]

BTK, sequence (Q06187 whole entry): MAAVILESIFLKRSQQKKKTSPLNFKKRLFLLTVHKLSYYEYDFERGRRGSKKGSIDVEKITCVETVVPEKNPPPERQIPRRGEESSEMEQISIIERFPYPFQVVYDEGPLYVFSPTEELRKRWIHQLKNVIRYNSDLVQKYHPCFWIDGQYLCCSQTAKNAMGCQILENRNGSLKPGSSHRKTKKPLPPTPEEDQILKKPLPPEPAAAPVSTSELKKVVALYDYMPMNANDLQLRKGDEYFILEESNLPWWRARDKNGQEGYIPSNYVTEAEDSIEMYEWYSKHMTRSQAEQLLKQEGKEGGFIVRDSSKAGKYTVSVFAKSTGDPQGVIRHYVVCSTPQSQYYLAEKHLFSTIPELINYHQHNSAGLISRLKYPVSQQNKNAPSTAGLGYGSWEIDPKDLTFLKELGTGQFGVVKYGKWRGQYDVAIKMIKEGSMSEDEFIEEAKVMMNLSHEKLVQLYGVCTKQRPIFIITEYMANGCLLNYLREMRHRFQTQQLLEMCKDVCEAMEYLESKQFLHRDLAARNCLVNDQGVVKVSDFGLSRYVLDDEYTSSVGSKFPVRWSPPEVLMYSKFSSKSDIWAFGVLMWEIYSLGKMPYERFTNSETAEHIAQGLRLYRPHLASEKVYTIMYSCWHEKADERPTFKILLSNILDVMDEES

Structure (SMILES)	time to degrade BTK / reach maximum degradation [1]	fold reduction in potency, C481S vs wild-type BTK [2]	effective cellular concentration relative to IR-2 [3]	effective cellular concentration relative to RC-2 [3]	Effective cellular concentration [3]
Nc1ncnc2c1c(-c1ccc(Oc3ccccc3)cc1)nn2C1CCCN(C(=O)C=CCOCCOCCOCCOCCOCCOc2cccc3c2C(=O)N(C2CCC(=O)NC2=O)C3=O)C1 (centres unmarked) [IR-1]	2 to 4 h	–	–	–	–
Nc1ncnc2c1c(-c1ccc(Oc3ccccc3)cc1)nn2C1CCCN(C(=O)CCCCCCOCCOCCOCCOCCOc2cccc3c2C(=O)N(C2CCC(=O)NC2=O)C3=O)C1 (centres unmarked) [NC-1]	2 to 4 h	< 2 fold	~2 times	~10 times	8.6 ± 2.6 pg compound / µg total protein

Continued, in another order:

time to degrade BTK / reach maximum degradation [1]	fold reduction in potency, C481S vs wild-type BTK [2]	effective cellular concentration relative to IR-2 [3]	effective cellular concentration relative to RC-2 [3]	Structure (SMILES)	Effective cellular concentration [3]
2 to 4 h	only slight sensitivity to the mutation	–	–	Nc1ncnc2c1c(-c1ccc(Oc3ccccc3)cc1)nn2C1CCCN(C(=O)C=CCCCCOCCOCCOCCOCCOc2cccc3c2C(=O)N(C2CCC(=O)NC2=O)C3=O)C1 (centres unmarked) [IR-2]	4.1 ± 0.7 pg compound / µg total protein
2 to 4 h	> 1000 fold	~2 times	~10 times	CC(C)(C=C(C#N)C(=O)N1CCCC(n2nc(-c3ccc(Oc4ccccc4)cc3)c3c(N)ncnc32)C1)CCCOCCOCCOCCOCCOc1cccc2c1C(=O)N(C1CCC(=O)NC1=O)C2=O (centres unmarked) [RC-3]	10.7 ± 3.1 pg compound / µg total protein
6 to 24 h	68 fold	–	–	N#CC(=CCCCCOCCOCCOCCOCCOc1cccc2c1C(=O)N(C1CCC(=O)NC1=O)C2=O)C(=O)N1CCCC(n2nc(-c3ccc(Oc4ccccc4)cc3)c3c(N)ncnc32)C1 (centres unmarked) [RC-2]	0.93 ± 0.06 pg compound / µg total protein
